Data as given in the supplement of paper PMC10307832.

Tests used:
Experiment in all cases: relative viability (nuclei count vs DMSO), 5 days (fraction); higher = more cells survive
[1] = compound: Cc1cnc(CNC(=O)c2c(=O)c3ccc(N4CCCN(C)CC4)nc3n3c2sc2ccccc23)cn1 [CX-5461] + Cc1cc(Nc2cc(N3CCN(C)CC3)nc(Sc3ccc(NC(=O)C4CC4)cc3)n2)n[nH]1 [Tozasertib] (partner 0.1 µM)
Procedure, shortened: (§1)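 A single step with final 0.05% Triton X-100, 1% formaldehyde and 1 ug/ml Hoechst fixed the cells and stained nuclei 5 days after treatment. Lung cancer cell lines in 1536-well plates had been treated by pin tool the day after seeding with one drug alone or a fixed anchor-drug dose plus five library-drug doses (not always all listed) in √10 steps, and nuclei were counted on 4× images. Relative viability is the ratio of nuclei in treated wells to nuclei in vehicle wells, taken as the median of duplicate plates.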

[2] = compound: Cc1cnc(CNC(=O)c2c(=O)c3ccc(N4CCCN(C)CC4)nc3n3c2sc2ccccc23)cn1 [CX-5461] + CS(=O)(=O)N1CCN(Cc2cc3nc(-c4cccc5[nH]ncc45)nc(N4CCOCC4)c3s2)CC1 [Pictilisib] (partner 1 µM)
Procedure, shortened: as §1

[3] = compound: Cc1cnc(CNC(=O)c2c(=O)c3ccc(N4CCCN(C)CC4)nc3n3c2sc2ccccc23)cn1 [CX-5461] + C[C@]1(O)C[C@@H](c2nc(-c3ccc4ccc(-c5ccccc5)nc4c3)c3c(N)nccn32)C1 [Linsitinib] (partner 1 µM)
Procedure, shortened: as §1

[4] = compound: Cc1cnc(CNC(=O)c2c(=O)c3ccc(N4CCCN(C)CC4)nc3n3c2sc2ccccc23)cn1 [CX-5461] + COc1cccc2cc(-c3nc([C@H]4CC[C@H](C(=O)O)CC4)n4ncnc(N)c34)[nH]c12 [OSI-027] (partner 0.5 µM)
Procedure, shortened: as §1

| Cell Line | relative viability ([1]; first compound 0.01 µM) | relative viability ([1]; first compound 0.03162 µM) | relative viability ([1]; first compound 0.1 µM) | relative viability ([1]; first compound 0.3162 µM) | relative viability ([1]; first compound 1 µM) | relative viability ([2]; first compound 0.01 µM) | relative viability ([2]; first compound 0.03162 µM) | relative viability ([2]; first compound 0.3162 µM) | relative viability ([2]; first compound 1 µM) | relative viability ([3]; first compound 0.01 µM) | relative viability ([3]; first compound 0.03162 µM) | relative viability ([3]; first compound 0.3162 µM) | relative viability ([3]; first compound 1 µM) | relative viability ([4]; first compound 0.01 µM) | relative viability ([4]; first compound 0.03162 µM) | relative viability ([4]; first compound 0.1 µM) | relative viability ([4]; first compound 0.3162 µM) | relative viability ([4]; first compound 1 µM) | relative viability ([2]; first compound 0.1 µM) | relative viability ([3]; first compound 0.1 µM) |
| --- | --- | --- | --- | --- | --- | --- | --- | --- | --- | --- | --- | --- | --- | --- | --- | --- | --- | --- | --- | --- |
| NCI-H1666 | 0.629 | 0.609 | 0.488 | 0.534 | 0.406 | 0.375 | 0.533 | 0.337 | 0.349 | 0.787 | 0.982 | 0.82 | 0.459 | 0.894 | 0.875 | 0.664 | 0.756 | 0.636 | – | – |
| NCI-H1734 | 0.261 | 0.293 | 0.266 | 0.209 | 0.238 | 0.516 | 0.519 | 0.317 | 0.341 | 1.01 | 0.97 | 0.772 | 0.868 | 0.586 | 0.646 | 0.706 | 0.499 | 0.445 | 0.503 | 0.901 |
| NCI-H1755 | 0.49 | 0.568 | 0.565 | 0.529 | 0.467 | 0.463 | 0.484 | 0.301 | 0.383 | 0.983 | 1.05 | 0.993 | 1.01 | 0.732 | 0.736 | 0.713 | 0.646 | 0.655 | 0.446 | 0.968 |
| NCI-H1793 | 0.281 | 0.332 | 0.426 | – | 0.315 | 0.202 | 0.311 | 0.212 | 0.402 | 1.05 | 0.913 | 0.913 | 0.752 | 0.296 | 0.289 | 0.318 | – | 0.198 | 0.344 | 0.941 |
| NCI-H1915 | 0.426 | 0.471 | 0.417 | 0.312 | 0.426 | 0.966 | 1.18 | 0.326 | 0.997 | 1.1 | 1.13 | 1.12 | 1.16 | 0.664 | 0.692 | 0.601 | 0.599 | 0.605 | 1.1 | 1.12 |
| NCI-H1944 | 0.259 | 0.271 | 0.244 | 0.228 | 0.248 | 0.335 | 0.371 | – | 0.353 | 1.27 | 1.26 | – | 1.18 | 0.49 | 0.446 | 0.377 | 0.252 | 0.259 | 0.332 | 1.05 |
| NCI-H1975 | 0.744 | 0.815 | 0.577 | 0.744 | 0.211 | 0.293 | 0.274 | 0.315 | 0.209 | 1.06 | 0.983 | 1 | 0.629 | 0.842 | 0.735 | 0.661 | 0.865 | 0.329 | 0.274 | 0.784 |
| NCI-H1993 | 0.614 | 0.585 | 0.566 | 0.599 | 0.556 | 0.778 | 0.83 | 0.84 | 0.819 | 0.743 | 0.681 | 0.712 | 0.643 | 0.562 | 0.591 | 0.625 | 0.511 | 0.448 | 0.891 | 0.722 |
| NCI-H2009 | 0.714 | 0.776 | 0.53 | 0.713 | 0.548 | 0.87 | 0.862 | 0.519 | 0.815 | 1.24 | 1.14 | 1.19 | 0.804 | 0.696 | 0.651 | 0.471 | 0.697 | 0.516 | 0.635 | 1.18 |
| NCI-H2023 | 0.306 | 0.325 | 0.237 | 0.283 | 0.0913 | 0.284 | 0.257 | 0.0857 | 0.102 | 0.661 | 0.744 | 0.599 | 0.162 | 0.387 | 0.386 | 0.184 | 0.329 | 0.0856 | – | – |
| NCI-H2085 | 0.734 | 0.849 | 0.785 | 0.752 | 0.798 | 0.551 | 0.408 | 0.514 | 0.374 | 0.923 | 1.03 | 0.952 | 0.864 | 0.845 | 0.75 | 0.625 | 0.557 | 0.557 | 0.435 | 0.911 |
| NCI-H2087 | 0.208 | 0.276 | 0.243 | 0.265 | 0.159 | 0.887 | 1.02 | 0.282 | 0.716 | 1.03 | 0.999 | 0.811 | 1.05 | 0.61 | 0.499 | 0.474 | 0.369 | 0.407 | 1.07 | 0.946 |
| NCI-H2126 | 0.842 | 0.842 | 0.758 | 0.765 | 0.668 | 0.486 | 0.521 | 0.518 | 0.487 | 0.728 | 0.727 | 0.731 | 0.679 | 0.75 | 0.684 | 0.717 | 0.783 | 0.63 | 0.478 | 0.71 |
| NCI-H2228 | 0.245 | 0.213 | 0.224 | 0.261 | 0.0867 | 0.646 | 0.425 | 0.432 | 0.153 | 0.736 | 0.975 | 0.718 | 0.282 | 0.629 | 0.428 | 0.361 | 0.272 | 0.13 | 0.255 | 0.416 |
| NCI-H2347 | 0.544 | 0.563 | 0.474 | 0.536 | 0.454 | 0.769 | 0.697 | 0.562 | 0.665 | 0.963 | 1.03 | 0.582 | 0.795 | 0.326 | 0.395 | 0.411 | 0.553 | 0.395 | 0.49 | 1.04 |
| NCI-H2405 | 0.746 | 0.882 | 0.702 | 0.549 | 0.544 | 0.427 | 0.468 | 0.259 | 0.413 | 1.03 | 0.898 | 0.897 | 0.757 | 0.607 | 0.639 | 0.717 | 0.632 | 0.616 | 0.419 | 0.993 |
